We go through four molecules from patent publication US5013549A, “Production, isolation, and identification of novel antifungal compounds” (priority 1990, dated 1991).

The subject of data set [1] is Cryptococcus neoformans-N-2. As to the kind of experiment: Minimum inhibitory concentration, Cryptococcus neoformans-N-2. In kind it is cell-based. Particulars: N = encapsulated, mucoid strain with neurotropic tendencies, 26° C., 2 to 5 days. The procedure:
(§1) Known amounts of the purified substance were dissolved in DMSO and serial dilutions prepared in the same solvent. A 20 ul volume of each dilution was placed on the surface of Emmon's agar in petri-dishes seeded with various test strains of pathogenic and saprophytic fungi. The antibacterial activity was monitored using Muller-Hilton agar. The minimum inhibitory concentration (MIC) was determined by incorporating known amount of the DMSO dissolved purified substance into Emmon's liquid medium (same as stated earlier but devoid of agar) contained in test tubes. The tubes were inoculated with ca 2×10^3 CFU of the test organisms. The inoculated tubes were incubated at 26° C. and the results recorded after two to 5 days depending upon the growth pattern of the test organisms (certain fungi grow faster than others). Tubes inoculated in an identical manner but devoid of the active substance served as controls.

Data set [2] relates to S. aureus (multiple drug resistant). Put plainly: Minimum inhibitory concentration, S. aureus (multiple drug resistant). In kind it is cell-based, Staphylococcus aureus. The following applies: bacterial strain. The procedure: as §1
Data set [3] has as its system Cladosporium species. As to the kind of experiment: Minimum inhibitory concentration, Cladosporium species. In kind it is cell-based. Particulars: 26° C., 2 to 5 days, Emmon's liquid medium, fungus. The procedure: as §1
For data set [4], the system named is C. neoformans serotype-C. As to the kind of experiment: Minimum inhibitory concentration, C. neoformans serotype-C. Format: cell-based. The following applies: Cryptococcus neoformans. The procedure: as §1
Data set [5] has as its system R. glutinis. Put plainly: Minimum inhibitory concentration, R. glutinis. In kind it is cell-based. The following applies: Rhodotorula glutinis. The procedure:
as §1

In data set [6] the test system is Staphylococcus aureus ATCC 29213. As to the kind of experiment: Minimum inhibitory concentration, Staphylococcus aureus ATCC 29213. In kind it is cell-based. The following applies: bacterial strain ATCC 29213. The procedure:
as §1

Data set [7] concerns Candida albicans. Put plainly: Minimum inhibitory concentration, Candida albicans. Format: cell-based. The following applies: 26° C., 2 to 5 days, Emmon's liquid medium, fungus. The procedure:
as §1

In data set [8] the test system is Escherichia coli. As to the kind of experiment: Minimum inhibitory concentration, Escherichia coli. In kind it is cell-based. The following applies: bacterial strain. The procedure: as §1
In data set [9] the test system is Citrobacter species. As to the kind of experiment: Minimum inhibitory concentration, Citrobacter species. In kind it is cell-based. Particulars: bacterial strain. The procedure: as §1
Data set [10] concerns Pseudomonas aeruginosa. Put plainly: Minimum inhibitory concentration, Pseudomonas aeruginosa. The following applies: bacterial strain. In kind it is cell-based. The procedure: as §1
Data set [11] deals with S. aureus ATCC 25923. Put plainly: Minimum inhibitory concentration, S. aureus ATCC 25923. In kind it is cell-based, Staphylococcus aureus. Particulars: bacterial strain ATCC 25923. The procedure: as §1
Data set [12] can be described thus: Stability in 2N HCl. In kind it is physicochemical.
The subject of data set [13] is A. flavus. Put plainly: Minimum inhibitory concentration, A. flavus. In kind it is cell-based. Particulars: Aspergillus flavus; 26° C., 2 to 5 days, Emmon's liquid medium; fungus. The procedure: as §1
The subject of data set [14] is Aspergillus fumigatus. Put plainly: Minimum inhibitory concentration, Aspergillus fumigatus. Format: cell-based. The procedure: as §1
Data set [15] relates to C. neoformans- G-3. Put plainly: Minimum inhibitory concentration, C. neoformans- G-3. Format: cell-based. The following applies: Cryptococcus neoformans. The procedure:
as §1

Data set [16] relates to C. neoformans- N-3. As to the kind of experiment: Minimum inhibitory concentration, C. neoformans- N-3. Format: cell-based. Particulars: Cryptococcus neoformans; N = encapsulated, mucoid strain with neurotropic tendencies; 26° C., 2 to 5 days. The procedure:
as §1

Data set [17] relates to Plebsiella pneumoniae. Put plainly: Minimum inhibitory concentration, Plebsiella pneumoniae. In kind it is cell-based. The procedure: as §1
A short description of data set [18]: Solubility. Format: physicochemical.
Data set [19] relates to Rhodotorula rubra. Put plainly: Minimum inhibitory concentration, Rhodotorula rubra. In kind it is cell-based. The procedure:
as §1

The test system of data set [20] is A. niger. Put plainly: Minimum inhibitory concentration, A. niger. In kind it is cell-based. The following applies: Aspergillus niger; 26° C., 2 to 5 days, Emmon's liquid medium; fungus. The procedure:
as §1

For data set [21], the system named is Penicillium species. As to the kind of experiment: Minimum inhibitory concentration, Penicillium species. In kind it is cell-based. Particulars: 26° C., 2 to 5 days, Emmon's liquid medium, fungus. The procedure: as §1
In data set [22] the test system is C.neoformans serotype-D. Put plainly: Minimum inhibitory concentration, C.neoformans serotype-D. Particulars: Cryptococcus neoformans, 26° C., 2 to 5 days. Format: cell-based. The procedure:
as §1

Data set [23] concerns C. quilliermondii. Put plainly: Minimum inhibitory concentration, C. quilliermondii. Format: cell-based. The procedure:
as §1

In data set [24] the test system is murine tumors. Particulars: more active than adriamycin; cited from earlier work.
For data set [25] the following is noted: cited from earlier work.
Data set [26] deals with fungi. Particulars: known related compounds; cited from earlier work.

Converted amounts (≈) assume the structure as drawn. “Also recorded” adds a separate entry of the source. Where two headings read alike, the source gives them in different places.

In the case of `CCC1(O)CC(OC2CC(N(C)C)C(OC3CC(O)C(OC4CCC(=O)C(C)O4)C(C)O3)C(C)O2)c2c(cc3c(c2O)C(=O)c2c(O)ccc(O)c2C3=O)C1C(=O)OC` (stereo not drawn) [spartanamicin B], the MIC in [1] is 0.8 µg/mL (≈ 0.966 µM); in data set [2] it was “not active”; in data set [3], 0.4 µg/mL (≈ 0.483 µM); in data set [4] it was 0.8 µg/mL (≈ 0.966 µM); in data set [5], 0.4 µg/mL (≈ 0.483 µM); in [6] it was 0.8 µg/mL (≈ 0.966 µM). Moreover, the MIC in [7] was 0.2 µg/mL (≈ 0.242 µM); in data set [8], “not active”; in [9], “not active”; in [10], 100 µg/mL (≈ 121 µM); in [11], 0.8 µg/mL (≈ 0.966 µM); in data set [13], 0.6 µg/mL (≈ 0.725 µM). The minimal inhibitory concentration (MIC) in [14] was found to be 0.4 µg/mL (≈ 0.483 µM); in data set [15], 1 µg/mL (≈ 1.21 µM); in data set [16], 0.6 µg/mL (≈ 0.725 µM); in data set [17] it was 100 µg/mL (≈ 121 µM); in data set [19], 0.8 µg/mL (≈ 0.966 µM); in data set [20] it was 0.6 µg/mL (≈ 0.725 µM). Besides, the minimal inhibitory concentration (MIC) in [21] was determined as 0.2 µg/mL (≈ 0.242 µM); in data set [22], 0.8 µg/mL (≈ 0.966 µM); in [23], 0.8 µg/mL (≈ 0.966 µM). The “stability upon standing in 2N HCl” value in data set [12] is reported as “hydrolyses”. The Solubility entry in [18] (in 1-butanol) is reported as “Sparingly soluble”; in data set [18] (in 2N HCl) it was “Insoluble”; in [18] (in N,N-dimethyl formamide (DMF)), “Soluble”; in data set [18] (in acetone) it was “Soluble”; in data set [18] (in acetonitrile), “Sparingly soluble”; in [18] (in carbon tetrachloride), “Soluble”. In addition, the Solubility entry in [18] (in chloroform) was “Soluble”; in data set [18] (in cyclohexane) it was “Insoluble”; in [18] (in dimethyl sulfoxide (DMSO)) it was “Soluble”; in data set [18] (in ethanol) it was “not soluble; also recorded: Sparingly soluble”; in data set [18] (in ethyl acetate) it was “Soluble”; in [18] (in glacial acetic acid) it was “Soluble”. For the same molecule, the Solubility result in data set [18] (in hexane) is reported as “Insoluble”; in [18] (in methanol), “not soluble; also recorded: Sparingly soluble”; in data set [18] (in toluene), “Soluble”; in data set [18] (in water), “Insoluble”.
Turning to `CCN[C@H]1CO[C@@H](O[C@H]2[C@H](O[C@H]3C#C/C=C\C#C[C@]4(O)CC(=O)C(NC(=O)OC)=C3/C4=C\CSSSC)O[C@H](C)[C@@H](NO[C@H]3C[C@H](O)[C@H](SC(=O)c4c(C)c(I)c(O[C@@H]5O[C@@H](C)[C@H](O)[C@@H](OC)[C@H]5O)c(OC)c4OC)[C@@H](C)O3)[C@@H]2O)C[C@@H]1OC` [Calicheamicin], in data set [24], the “activity relative to adriamycin against murine tumors” value is “approximately 1000 -fold”.
Take `CCC1(O)CC(OC2CC(N(C)C)C(OC3CC(O)C(OC4CCC(=O)C(C)O4)C(C)O3)C(C)O2)c2c(cc3c(c2O)C(=O)c2c(O)ccc(O)c2C3=O)C1C(=O)OC` (stereo not drawn) [cinerubin A]: the “solubility of known cinerubins” value in data set [25] (in ethanol) and in data set [25] (in methanol) was “soluble” throughout. Also, the antifungal properties result in data set [26] is on record as “not significantly antifungal”.
Consider `CC[C@@]1(O)C[C@H](O[C@H]2C[C@H](N(C)C)[C@H](O[C@H]3C[C@@H]4O[C@H]5CC(=O)[C@H](C)O[C@H]5O[C@@H]4[C@H](C)O3)[C@H](C)O2)c2c(cc3c(c2O)C(=O)c2c(O)ccc(O)c2C3=O)[C@H]1C(=O)OC` [cinerubin B], for which the “solubility of known cinerubins” value in data set [25] (in ethanol) and in data set [25] (in methanol) was “soluble” throughout. Further, the antifungal properties entry in [26] is “not significantly antifungal”.
